Columns and labels:
KDM2A [1] = conditions: cited from earlier work
FaDu tumor spheroids = assay: Spheroid T cell infiltration assay, CD19-CAR T cells co-cultured with CD19-expressing tumor spheroids; format: cell-based, human; conditions: daminozide 1.5 μM, added the day before T cells; 3 days co-culture
Text: FIG. 3A-3G. KDM2A inhibition reverses the immune cold phenotype induced by NSD1 inactivation and induces T cell infiltration into the tumor microenvironment. (A) Overview and illustration of experiment workflow. Tumor spheroids were established from HNSCC tumor cells transfected to express truncated CD19 on the cell surface and grown in submerged Matrigel. The spheroids were co-cultured with CD19-CAR-T cells for three days and then isolated for analysis by confocal microscopy. (B) Assessment by qRT-PCR of CXCL9 and CXCL10 expression after CXCL9 or CXCL10 overexpression (OE) in FaDu cells transduced to express shRNA targeting NSD1 (NSD1-sh). (C) Representative images of tumor spheroids after co-cultured with CD19-CAR-T cells for 3 days. Ctrl=vector control; NSD1-sh=shRNA targeting NSD1; CXCL9-OE=overexpression construct for CXCL9; CXCL10-OE=overexpression construct for CXCL10; KDM2A-sh=shRNA targeting KDM2A. Scale bar=50 um. (D) Representative images of tumor spheroids stained with anti-CD3 antibody (red) and DAPI (blue). […] (E) Quantification of CD3+ cells per 100 cells in the spheroids. […] (G) Quantification of CD3^+ cells per 100 cells in the spheroids. […]
Spheroid T cellinfiltration assay. […] After 3 days of co-culture, the spheroid Matrigel domes were harvested and analyzed by microscopy. […] The stained samples were mounted on glass slides and analyzed by LSM700 confocal microscopy (Zeiss). […]

[2] = system: NSD1-inhibited MOC1 tumors; assay: Luciferase expressing MOC1 tumors, EZH2 inhibitor treatment, bioluminescence imaging; format: in vivo, mouse (B6 wild type); conditions: 200 mg/kg daily, luminescence day 10
Description: FIG. 14. Luciferase expressing MOC1 cells, transduced with scramble control shRNA, NSD1 shRNA, or both NSD1 shRNA and KDM2A shRNA, were injected to B6 wild type mice subcutaneously. The mice were treated 24 hours later with or without EZH2 inhibitor (EPZ-6438) at a dose of 200 mg/kg daily, with or without anti-PD-1 antibody (200 μg/mouse). Bioluminescence imaging was used to assess tumor burden; quantified luminescence signal on day 10 is shown in photons per second. *p<0.05.

CTLA4 = conditions: cited from earlier work
KDM2A [3] = conditions: cited from earlier work; remark: listed apart in the source
[4] = system: histone acetyl transferases; conditions: cited from earlier work
methyl transferases = conditions: cited from earlier work
[5] = system: other JmjC lysine demethylases; conditions: KDM2A/7A versus other JmjC lysine demethylases; cited from earlier work
[6] = not told; cited from earlier work
HNSCC = conditions: human, in vivo; cited from earlier work
CTLA-4 = conditions: cited from earlier work
HPV-unrelated HNSCC = assay: neoadjuvant pembrolizumab phase II window-of-opportunity trial (NCT02296684); format: in vivo, human
Description: FIGS. 1A-1D: NSD1 inactivation downregulates the expression of CXCL9 and CXCL10 in HNSCC. RNA expression and genomic sequencing data from a multicenter, phase II, window-of-opportunity trial (NCT02296684) (23) was examined for CXCL9 and CXCL10 expression and NSD1 mutations. In this trial, neoadjuvant pembrolizumab was administered to patients with locally advanced, resectable, HPV-unrelated HNSCC two to three weeks prior to definitive surgical resection. (A) Comparison of CXCL9 and CXCL10 baseline expression to pathologic tumor response (pTR), as defined in (23), to the anti-PD-1 antibody pembrolizumab. Circles represent responders. ▴ A represent non-responders with wild-type NSD1. Gray triangles represent non-responders with mutated NSD1. (B) Tumor histology from the two patients in the trial that had tumors with NSD1 mutations. Histology of NSD wild-type tumors is also shown. […]
CXCL9 and CXCL10 in human HNSCC datasets. […] The dataset was subsequently analyzed using Seurat (25): The series matrix was loaded into a Seurat object and was filtered to exclude poor quality or dying cells by removing cells with a mitochondrial genome fraction of 0.4 or greater as well as those with a unique feature count of fewer than 200 genes. […] Expression of CXCL9 and CXCL10 was analyzed within samples that had been profiled using whole exome sequencing, such that the NSD1 mutation status was known. […]

Compound: CN(C)NC(=O)CCC(=O)O [daminozide]
- effect on KDM2A histone demethylation (KDM2A [1]): significantly abrogate the effect of KDM2A on histone demethylation
- T cell infiltration into tumor spheroids (CD3+ cells per 100 cells) (FaDu tumor spheroids): increased the number of infiltrating T cells into tumor spheroids

Compound: CCN(c1cc(-c2ccc(CN3CCOCC3)cc2)cc(C(=O)NCc2c(C)cc(C)[nH]c2=O)c1C)C1CCOCC1 [EPZ-6438]
- tumor growth in WT mice (EZH2 inhibition) [2]: does reduce tumor growth in WT mice but not to the extent that KDM2A inhibition appeared to achieve

Compound: Tremelimumab: fully humanized CTLA4 antibody
- toxicity (CTLA4; 10 mg/kg monthly vs 15 mg/kg every 3 months, phase II): toxicity was doubled
- sustained plasma level in the majority of responders (CTLA4; at one month): > 30 µg/mL
- dose at which objective responses were evident (CTLA4; single antibody infusion, 0.01 mg/kg to 15 mg/kg): ≥ 3 mg/kg

Compound: CC(=O)N1c2ccccc2[C@@](C#N)(c2ccccc2)[C@@H]1c1cncc(CCCCCCCN2CCCC2)c1 [KDM2A/7A-IN-1]
- IC50 (KDM2A [3]): 160 nM
- activity on histone acetyl transferases [4]: inactive
- activity on methyl transferases (methyl transferases): inactive
- selectivity over other JmjC lysine demethylases [5]: 75 fold
- cell permeability [6]: cell-permeable

Compound: nivolumab: anti-PD-1 antibody
- clinical response in recurrent/metastatic HNSCC (HNSCC): impressive responses in recurrent/metastatic HNSCC, though only in a minority of patients

Compound: ipilimumab: fully humanized CTLA4 antibody
- grade III/IV enterocolitis (CTLA-4; 10 mg/kg): ~ 15%
- hepatitis (CTLA-4; additional irAEs): 5-10%
- hypophysitis (CTLA-4; additional irAEs): 5%
- leucopenia (CTLA-4; additional irAEs): < 2%
- pancreatitis (CTLA-4; additional irAEs): < 2%
- rash/pruritus (CTLA-4; additional irAEs): > 50%
- uveitis (CTLA-4; additional irAEs): < 2%

Compound: pembrolizumab: anti-PD-1 antibody
- response of tumors with low CXCL9 or CXCL10 expression (HPV-unrelated HNSCC; neoadjuvant, two to three weeks prior to surgery): None of the tumors with low CXCL9 or CXCL10 expression exhibited response
- response of patients with NSD1 inactivating mutations (HPV-unrelated HNSCC; two patients): Both were non-responders
- clinical response in recurrent/metastatic HNSCC (HNSCC): impressive responses in recurrent/metastatic HNSCC, though only in a minority of patients
